Measurements as given in patent US20230265151A1, “GIP/GLP1 CO-AGONIST COMPOUNDS” (priority 2020, published 2023).
Where two headings read alike, the source gives them in different places.

Key:
[1] = biological target: T1, human GLP-1 receptor (hGLP-1R) (Homo sapiens, UniProt P43220); assay: [125I]-GLP-1 binding, SPA with membranes of HEK293 cells expressing hGLP-1R
T1 construct: expressed in transfected cells; crude membranes

[2] = biological target: T2, human GIP receptor (hGIPR) (Homo sapiens, UniProt P48546); assay: [125I]-GIP binding, SPA with membranes of CHO cells expressing hGIPR
T2 construct: expressed in transfected cells; crude membranes
T2 sequence (P48546 22-466): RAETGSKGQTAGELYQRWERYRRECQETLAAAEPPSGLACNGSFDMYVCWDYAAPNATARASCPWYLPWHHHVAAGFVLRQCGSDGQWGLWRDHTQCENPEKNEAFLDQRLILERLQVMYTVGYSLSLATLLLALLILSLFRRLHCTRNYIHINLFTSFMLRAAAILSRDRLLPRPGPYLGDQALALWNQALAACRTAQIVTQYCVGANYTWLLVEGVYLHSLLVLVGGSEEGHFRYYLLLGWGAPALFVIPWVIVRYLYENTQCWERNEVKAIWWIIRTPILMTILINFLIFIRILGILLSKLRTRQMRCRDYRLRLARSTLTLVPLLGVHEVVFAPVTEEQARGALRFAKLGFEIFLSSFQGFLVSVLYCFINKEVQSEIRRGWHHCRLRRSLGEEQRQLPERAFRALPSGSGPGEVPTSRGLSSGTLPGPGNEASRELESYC

hGIPR = biological target: T3, hGIPR (Homo sapiens, UniProt P48546); assay: Functional cAMP formation (HTRF) in HEK-293 clonal cells expressing hGIPR, 0.1% bovine casein, without or with 1.0% human serum albumin; type: cell-based
T3 construct: expressed in transfected cells
T3 sequence (P48546 22-466): T2 sequence (P48546 22-466)
Summary of the method: (§1)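 Readings of the HTRF 665/620 nm ratio, which falls as cAMP rises, were converted to nM cAMP using a standard curve after 30 min peptide exposure at 37° C.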

hGCGR = biological target: T4, hGCGR (Homo sapiens, UniProt P47871); assay: Functional cAMP formation (HTRF) in HEK-293 clonal cells expressing hGCGR, 0.1% bovine casein, without or with 1.0% human serum albumin; type: cell-based
T4 construct: expressed in transfected cells
Summary of the method: as §1

hGLP-1R = hGLP-1R (Homo sapiens, UniProt P43220); assay: Functional cAMP formation (HTRF) in HEK-293 clonal cells expressing hGLP-1R, 0.1% bovine casein, without or with 1.0% human serum albumin; type: cell-based; design: expressed in transfected cells; conditions: for EC50: geometric mean; for Emax: percent of maximal response to GLP-1(7-36)NH2
Summary of the method: as §1

[3] = human GLP-1R, geometric mean (SEM, n), read-out: Binding Affinity Ki, nM (SEM, n) hGLP-1R
[4] = human GIPR, geometric mean (SEM, n), read-out: Binding Affinity Ki, nM (SEM, n) hGIPR
[5] = 0.1% bovine casein and 1.0% human serum albumin, 37° C., geometric mean, read-out: hGIPR EC50, nM (SEM, n)
[6] = HEK293, 0.1% bovine casein and 1.0% human serum albumin, 37° C., percent of maximal response to GIP(1-42)NH2, read-out: hGIPR Emax, % ± SEM
[7] = 0.1% bovine casein and 1.0% human serum albumin, 37° C., geometric mean, read-out: hGCGR EC50, nM (SEM, n)

hGLP-1R, sequence (P43220 24-463): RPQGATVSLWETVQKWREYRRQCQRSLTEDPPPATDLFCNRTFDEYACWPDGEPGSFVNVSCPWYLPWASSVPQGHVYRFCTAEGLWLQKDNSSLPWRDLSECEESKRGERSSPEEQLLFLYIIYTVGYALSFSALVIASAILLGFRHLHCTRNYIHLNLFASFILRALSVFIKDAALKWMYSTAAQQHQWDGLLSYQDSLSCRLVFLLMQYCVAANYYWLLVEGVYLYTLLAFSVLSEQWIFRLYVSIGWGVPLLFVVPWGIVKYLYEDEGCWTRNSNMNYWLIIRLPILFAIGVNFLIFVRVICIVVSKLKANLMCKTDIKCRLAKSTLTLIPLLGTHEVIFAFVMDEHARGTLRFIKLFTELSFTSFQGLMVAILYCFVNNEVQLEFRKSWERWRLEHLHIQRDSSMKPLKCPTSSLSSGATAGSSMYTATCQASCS
T1 sequence (P43220 24-463): as above
T4 sequence (P47871 26-477): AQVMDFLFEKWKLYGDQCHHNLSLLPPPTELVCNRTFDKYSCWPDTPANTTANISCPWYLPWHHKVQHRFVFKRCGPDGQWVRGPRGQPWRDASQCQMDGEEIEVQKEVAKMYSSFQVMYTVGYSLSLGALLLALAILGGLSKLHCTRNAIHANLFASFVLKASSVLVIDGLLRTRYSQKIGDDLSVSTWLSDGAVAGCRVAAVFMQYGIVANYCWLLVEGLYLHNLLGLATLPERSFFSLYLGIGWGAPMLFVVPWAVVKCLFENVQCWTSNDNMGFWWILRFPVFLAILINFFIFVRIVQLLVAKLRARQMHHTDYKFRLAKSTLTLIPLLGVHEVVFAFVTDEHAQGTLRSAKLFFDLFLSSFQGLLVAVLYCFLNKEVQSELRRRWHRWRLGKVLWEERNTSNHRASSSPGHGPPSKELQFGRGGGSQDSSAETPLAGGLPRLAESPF

SMILES: CC[C@H](C)[C@H](NC(=O)[C@H](CC(C)C)NC(=O)[C@](C)(Cc1ccc(O)cc1)NC(=O)[C@@H](CCC(=O)O)NC(=O)[C@@H](NC(=O)[C@H](Cc1ccccc1)NC(=O)[C@H](CCC(=O)O)NC(=O)C(C)(C)NC(=O)[C@H](CCC(N)=O)NC(=O)[C@H](C)NC(=O)[C@H](CCCCNC(=O)COCCOCCNC(=O)COCCOCCNC(=O)CC[C@H](NC(=O)CCCc1ccc(I)cc1)C(=O)O)NC(=O)[C@H](CCCN)NC(=O)[C@H](CC(=O)O)NC(=O)[C@H](CC(C)C)NC(=O)[C@](C)(CC(C)C)NC(=O)[C@@H](NC(=O)[C@H](CO)NC(=O)[C@H](Cc1ccncc1)NC(=O)[C@H](CC(=O)O)NC(=O)[C@H](CO)NC(=O)[C@@H](NC(=O)[C@](C)(Cc1ccccc1F)NC(=O)[C@@H](NC(=O)CNC(=O)[C@H](CCC(=O)O)NC(=O)C(C)(C)NC(=O)[C@@H](N)Cc1ccc(O)cc1)[C@@H](C)O)[C@@H](C)O)[C@@H](C)CC)[C@@H](C)CC)C(=O)N[C@@H](CCC(=O)O)C(=O)NCC(=O)NCC(=O)N[C@@H](CCCCNC(=O)COCCOCCNC(=O)COCCOCCNC(=O)CC[C@H](NC(=O)CCCc1ccc(I)cc1)C(=O)O)C(=O)N[C@@H](CO)C(=O)N[C@@H](CO)C(=O)NCC(=O)N[C@@H](C)C(=O)N1CCC[C@H]1C(=O)N1CCC[C@H]1C(=O)N1CCC[C@H]1C(=O)N[C@@H](CO)C(N)=O [Example 3]
- Ki [1, 3]: 0.471 nM
- Ki [2, 4]: 0.0629 nM
- EC50 (hGIPR; [5]): 0.0971 nM
- Emax (hGIPR; [6]): 80%
- Emax (hGIPR; HEK293, percent of maximal response to GIP(1-42)NH2, 37° C., 0.1% bovine casein, arithmetic mean, read-out: hGIPR Emax, % ± SEM): 95.9 ± 2.95%
- EC50 (hGIPR; cAMP, incubated at 37° C., 0.1% bovine casein (no human serum albumin), geometric mean, read-out: hGIPR EC50, nM (SEM, n)): 0.0133 nM
- EC50 (hGCGR; [7]): > 9950 nM
- EC50 (hGCGR; cAMP, incubated at 37° C., 0.1% bovine casein (no human serum albumin), geometric mean, read-out: hGCGR EC50, nM (SEM, n)): > 9950 nM
- EC50 (hGLP-1R; 0.1% bovine casein and 1.0% human serum albumin, 37° C., read-out: hGLP-1R EC50, nM (SEM, n)): 1.05 nM
- EC50 (hGLP-1R; cAMP, incubated at 37° C., 0.1% bovine casein (no human serum albumin), read-out: hGLP-1R EC50, nM (SEM, n)): 0.223 nM

SMILES: CCCCCCCCCCCC(=O)N[C@@H](CCC(=O)NCCOCCOCC(=O)NCCOCCOCC(=O)NCCCC[C@H](NC(=O)[C@H](CO)NC(=O)[C@@H]1CCCN1C(=O)[C@@H]1CCCN1C(=O)[C@@H]1CCCN1C(=O)[C@H](C)NC(=O)CNC(=O)[C@H](CO)NC(=O)[C@H](CO)NC(=O)[C@@H]1CCCN1C(=O)CNC(=O)CNC(=O)[C@H](CCC(=O)O)NC(=O)[C@@H](NC(=O)[C@H](CC(C)C)NC(=O)[C@](C)(Cc1ccc(O)cc1)NC(=O)[C@@H](CCC(=O)O)NC(=O)[C@@H](NC(=O)[C@H](Cc1ccccc1)NC(=O)[C@H](CCC(=O)O)NC(=O)C(C)(C)NC(=O)[C@H](CCC(N)=O)NC(=O)[C@H](C)NC(=O)[C@H](CCCCNC(=O)COCCOCCNC(=O)COCCOCCNC(=O)CC[C@H](NC(=O)CCCCCCCCCCC)C(=O)O)NC(=O)[C@H](CCCN)NC(=O)[C@H](CC(=O)O)NC(=O)[C@H](CC(C)C)NC(=O)[C@](C)(CC(C)C)NC(=O)[C@@H](NC(=O)C(C)(C)NC(=O)[C@H](Cc1ccc(O)cc1)NC(=O)[C@H](CC(=O)O)NC(=O)[C@H](CO)NC(=O)[C@@H](NC(=O)[C@](C)(Cc1ccccc1F)NC(=O)[C@@H](NC(=O)CNC(=O)[C@H](CCC(=O)O)NC(=O)C(C)(C)NC(=O)[C@@H](N)Cc1ccc(O)cc1)[C@@H](C)O)[C@@H](C)O)[C@@H](C)CC)[C@@H](C)CC)[C@@H](C)CC)C(N)=O)C(=O)O [Example 302]
- Ki [1, 3]: 0.137 nM
- Ki [2, 4]: 0.0228 nM
- EC50 (hGIPR; [5]): 0.453 nM
- Emax (hGIPR; [6]): 86.3%
- Emax (hGIPR; HEK293, cAMP, 37° C., 0.1% bovine casein, percent of maximal response to GIP(1-42)NH2, arithmetic mean, read-out: hGIPR Emax, % ± SEM): 100%
- EC50 (hGIPR; cAMP, 37° C., 0.1% bovine casein (no human serum albumin), geometric mean, read-out: hGIPR EC50, nM (SEM, n)): 0.00916 nM
- EC50 (hGCGR; [7]): > 9950 nM
- EC50 (hGCGR; cAMP, 37° C., 0.1% bovine casein (no human serum albumin), geometric mean, read-out: hGCGR EC50, nM (SEM, n)): > 9950 nM
- Emax (hGLP-1R; HEK293, 0.1% bovine casein and 1.0% human serum albumin, 37° C., read-out: hGLP-1R Emax, % ± SEM): 99.4%
- EC50 (hGLP-1R; cAMP, 37° C., 0.1% bovine casein (no human serum albumin), read-out: hGLP-1R EC50, nM (SEM, n)): 0.0917 nM

SMILES: CC[C@H](C)[C@H](NC(=O)[C@H](CC(C)C)NC(=O)[C@](C)(Cc1ccc(O)cc1)NC(=O)[C@H](CCCCNC(=O)COCCOCCNC(=O)CC[C@H](NC(=O)CCCCCCCCCOc1ccc(C(=O)O)cc1)C(=O)O)NC(=O)[C@@H](NC(=O)[C@H](Cc1ccccc1)NC(=O)[C@H](CCCN)NC(=O)C(C)(C)NC(=O)[C@H](CCC(N)=O)NC(=O)[C@H](C)NC(=O)[C@H](CCC(N)=O)NC(=O)[C@H](CCCN)NC(=O)[C@H](CC(=O)O)NC(=O)[C@H](CC(C)C)NC(=O)[C@](C)(CC(C)C)NC(=O)[C@@H](NC(=O)C(C)(C)NC(=O)[C@H](Cc1ccncc1)NC(=O)[C@H](CC(=O)O)NC(=O)[C@H](CO)NC(=O)[C@@H](NC(=O)[C@](C)(Cc1ccccc1F)NC(=O)[C@@H](NC(=O)CNC(=O)[C@H](CCC(=O)O)NC(=O)C(C)(C)NC(=O)[C@@H](N)Cc1ccc(O)cc1)[C@@H](C)O)[C@@H](C)O)[C@@H](C)CC)[C@@H](C)CC)C(=O)N[C@@H](CCCCNC(=O)COCCOCCNC(=O)CC[C@H](NC(=O)CCCCCCCCCOc1ccc(C(=O)O)cc1)C(=O)O)C(=O)NCC(=O)NCC(=O)N1CCC[C@H]1C(=O)N[C@@H](CO)C(=O)N[C@@H](CO)C(=O)NCC(=O)N[C@@H](C)C(=O)N1CCC[C@H]1C(=O)N1CCC[C@H]1C(=O)N1CCC[C@H]1C(=O)N[C@@H](CO)C(N)=O [Example 463]
- Ki [1]: 0.143 nM
- Ki [2]: 0.0183 nM
- Emax (hGIPR; HEK293, read-out: hGIPR Emax, % ± SEM, cAMP, 37° C., 0.1% bovine casein, percent of maximal response to GIP(1-42)NH2, arithmetic mean): 91.4%
- EC50 (hGIPR; hGIPR EC50, nM (SEM, n), cAMP, 37° C., 0.1% bovine casein (no human serum albumin), geometric mean): 0.0124 nM
- EC50 (hGIPR; hGIPR EC50, nM (SEM, n), cAMP, 37° C., 0.1% bovine casein and 1.0% human serum albumin, geometric mean (SEM, n)): 0.35 nM
- EC50 (hGCGR; hGCGR EC50, nM (SEM, n), cAMP, 37° C., 0.1% bovine casein (no human serum albumin), geometric mean): > 9950 nM
- EC50 (hGCGR; hGCGR EC50, nM (SEM, n), cAMP, 37° C., 0.1% bovine casein and 1.0% human serum albumin, geometric mean (SEM, n)): > 9950 nM
- Emax (hGLP-1R; HEK293, read-out: hGLP-1R Emax, % ± SEM, cAMP, 37° C., 0.1% bovine casein, arithmetic mean): 111%
- EC50 (hGLP-1R; hGLP-1R EC50, nM (SEM, n), cAMP, 37° C., 0.1% bovine casein (no human serum albumin)): 0.267 nM
